Laboratory results from patent US7282507B2, “Indole derivatives as selective androgen receptor modulators (SARMS)” (Janssen Pharmaceutica N.V., priority 2004, dated 2007).
Where “and” joins values, the source holds several entries; their conditions need not be identical. Identical values can stand only once.

What was measured:
[1] = target: T1, androgen receptor (rat ventral prostate cytosol) (Rattus norvegicus, UniProt P15207); assay: Androgen Receptor Binding Using Rat Ventral Prostate Cytosol; settings: for % Inhibition, Androgen Receptor Binding (Rat Cytosol) / inhibition at 3 µM: Concentration 3000 nM
T1 construct: from tissue; host or cells: ventral prostate cytosol of castrated male Sprague Dawley or Wistar rats
T1 sequence (P15207 1-902): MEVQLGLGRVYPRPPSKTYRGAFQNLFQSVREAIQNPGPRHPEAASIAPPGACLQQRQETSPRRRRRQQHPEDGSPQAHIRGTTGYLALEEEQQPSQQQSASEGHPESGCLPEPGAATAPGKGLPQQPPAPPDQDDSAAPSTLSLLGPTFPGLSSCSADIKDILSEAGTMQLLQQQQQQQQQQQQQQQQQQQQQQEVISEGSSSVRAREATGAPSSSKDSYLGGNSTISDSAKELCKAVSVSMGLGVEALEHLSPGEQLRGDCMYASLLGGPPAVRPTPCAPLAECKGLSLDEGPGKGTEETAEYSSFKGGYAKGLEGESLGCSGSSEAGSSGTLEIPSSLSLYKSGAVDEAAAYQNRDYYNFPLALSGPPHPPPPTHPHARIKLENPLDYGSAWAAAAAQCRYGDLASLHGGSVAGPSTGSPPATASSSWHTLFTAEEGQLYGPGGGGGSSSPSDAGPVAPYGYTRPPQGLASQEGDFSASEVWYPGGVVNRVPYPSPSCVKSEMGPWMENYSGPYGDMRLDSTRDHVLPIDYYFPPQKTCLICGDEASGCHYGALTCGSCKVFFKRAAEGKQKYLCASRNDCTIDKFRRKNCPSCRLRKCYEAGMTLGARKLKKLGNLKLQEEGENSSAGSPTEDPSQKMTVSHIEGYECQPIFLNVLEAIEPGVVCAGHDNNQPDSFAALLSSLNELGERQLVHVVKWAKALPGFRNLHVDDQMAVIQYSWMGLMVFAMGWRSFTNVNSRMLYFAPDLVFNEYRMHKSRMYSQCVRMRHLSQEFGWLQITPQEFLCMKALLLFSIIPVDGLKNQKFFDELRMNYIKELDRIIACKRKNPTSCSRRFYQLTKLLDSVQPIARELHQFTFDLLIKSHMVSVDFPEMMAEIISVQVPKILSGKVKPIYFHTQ
In short: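 Cytosol from castrated rat ventral prostate was incubated overnight at 4°C with 0.5 nM [3H] tracer and compound in TED buffer (10 mM Tris-HCl pH 7.4, molybdate, EDTA, DTT, glycerol).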

[2] = test system: testosterone-enhanced ventral prostate and seminal vesicle weights; assay: Ventral Prostate and Seminal Vesicle Weight in vivo Assay; set-up: species or system rat; settings: immature castrated male Sprague Dawley rats, once daily for five days, usually orally 40 mg/kg, with testosterone propionate 2 mg/kg s.c. Also: key: 'active' if the non weight adjusted prostate weight was ≦40 mg or the % Inhibition prostate weight, body weight adjusted was ≧40% @ 2 mg/day dosage; ID50's, if determined, of ≦15 mg/day also indicated an 'active' compound; listed herein as 'inactive' as they did not meet the specified criteria defined above.
In short: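 Wet weights of ventral prostate and seminal vesicles were taken on day six. Castrated immature male Sprague Dawley rats had received five daily doses of testosterone propionate (2 mg/kg s.c.) together with test compound, typically 40 mg/kg orally. Activity was scored from absolute prostate weight or body-weight-adjusted % inhibition.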

| SMILES | active / inactive: inhibition of testosterone-enhanced prostate weight [2] | inhibition at 3 µM [1] [%] | further results |
| --- | --- | --- | --- |
| CC(O)(C[S+]([O-])Cc1ccccc1)c1cc2cc([N+](=O)[O-])c(C(F)(F)F)cc2[nH]1 (mixture of isomers) [Compound 161] | inactive |  | % Inhibition, Androgen Receptor Binding (Rat Cytosol) [1]: 39% |
| COc1ccc(S(=O)(=O)CC(C)(O)c2cc3cc(Cl)c(C(F)(F)F)cc3[nH]2)cc1 (racemic) [Compound 129] | inactive |  | % Inhibition, Androgen Receptor Binding (Rat Cytosol) [1]: 39.5% |
| COc1ccc(SCC(C)(O)c2cc3cc(Cl)c(C(F)(F)F)cc3n2S(C)(=O)=O)cc1 (racemic) [Compound 130] |  |  | % Inhibition, Androgen Receptor Binding (Rat Cytosol) [1]: 32.55% |
| CCSCC(C)(O)c1cc2cc([N+](=O)[O-])c(C(F)(F)F)cc2[nH]1 (racemic) [Compound 142] | active | 92 |  |
| CCSCC(C)(O)c1cc2cc([N+](=O)[O-])c(C(F)(F)F)cc2n1C (racemic) [Compound 165] | active | 52 |  |
| CSCC(C)(O)c1cc2cc([N+](=O)[O-])c(C(F)(F)F)cc2[nH]1 (single isomer, unassigned) [Compound 144] |  |  | % Inhibition, Androgen Receptor Binding (Rat Cytosol) ([1]; 3 µM): 79% |
| CSCC(C)(O)c1cc2cc([N+](=O)[O-])c(C(F)(F)F)cc2[nH]1 (single isomer, unassigned) [Compound 145] |  |  | % Inhibition, Androgen Receptor Binding (Rat Cytosol) ([1]; 3 µM): 58% |
| CCSCC(C)(O)c1cc2cc([N+](=O)[O-])c(C(F)(F)F)cc2[nH]1 (single isomer, unassigned) [Compound 149] |  |  | % Inhibition, Androgen Receptor Binding (Rat Cytosol) ([1]; 3 µM): 94% and 77% |
| CCSCC(C)(O)c1cc2cc([N+](=O)[O-])c(C(F)(F)F)cc2[nH]1 (single isomer, unassigned) [Compound 150] |  |  | % Inhibition, Androgen Receptor Binding (Rat Cytosol) ([1]; 3 µM): 120% |
| CC[S+]([O-])C[C@](C)(O)c1cc2cc([N+](=O)[O-])c(C(F)(F)F)cc2[nH]1 (stereo in doubt) [Compound 155, 1-Ethanesulfinyl-2-(5-nitro-6-trifluoromethyl-1H-indol-2-yl)-propan-2-ol] | inactive | -6.1 |  |
| CSCCC(C)(O)c1cc2cc([N+](=O)[O-])c(C(F)(F)F)cc2[nH]1 (stereo not drawn) [Compound 47] | inactive | 81 |  |
| CC(O)(CCS(C)(=O)=O)c1cc2cc([N+](=O)[O-])c(C(F)(F)F)cc2[nH]1 (stereo not drawn) [Compound 49] | inactive | 48 |  |
| CC(O)(CSc1ccc(N)cc1)c1cc2cc(Cl)c(C(F)(F)F)cc2[nH]1 (stereo not drawn) [Compound 104] | inactive | 110 | inhibition at 1 µM ([1]; Concentration 1000 nM, read-out: % Inhibition, Androgen Receptor Binding (Rat Cytosol)): 94.5% |
| CC(O)(CS(=O)(=O)c1ccc(N)cc1)c1cc2cc(Cl)c(C(F)(F)F)cc2[nH]1 (stereo not drawn) [Compound 118] | inactive | 80.5 |  |
| CC(O)(CSc1ccc(O)cc1)c1cc2cc(Cl)c(C(F)(F)F)cc2[nH]1 (stereo not drawn) [Compound 120] |  | 130 |  |
| CC(O)(CS(=O)(=O)c1ccc(O)cc1)c1cc2cc(Cl)c(C(F)(F)F)cc2[nH]1 (stereo not drawn) [Compound 121] |  | 86 |  |
| CC(O)(CSc1ccc([N+](=O)[O-])cc1)c1cc2cc(Cl)c(C(F)(F)F)cc2[nH]1 (stereo not drawn) [Compound 122] |  | 83.5 |  |
| COc1ccc(SCC(C)(O)c2cc3cc(Cl)c(C(F)(F)F)cc3[nH]2)cc1 (stereo not drawn) [Compound 131] | inactive | 120 |  |
| CSCC(C)(O)c1cc2cc(Cl)c(C(F)(F)F)cc2[nH]1 (stereo not drawn) [Compound 135] | inactive | 130 |  |

| SMILES | active / inactive: inhibition of testosterone-enhanced prostate weight [2] | inhibition at 3 µM [1] [%] | further results |
| --- | --- | --- | --- |
| CSCC(C)(O)c1cc2cc(C#N)c(C(F)(F)F)cc2[nH]1 (stereo not drawn) [Compound 136] | active | 38 |  |
| CC(O)(CS(C)(=O)=O)c1cc2cc(Cl)c(C(F)(F)F)cc2[nH]1 (stereo not drawn) [Compound 138] | inactive | 110 |  |
| CC(O)(CS(C)(=O)=O)c1cc2cc([N+](=O)[O-])c(C(F)(F)F)cc2[nH]1 (stereo not drawn) [Compound 140] | active |  | % Inhibition, Androgen Receptor Binding (Rat Cytosol) ([1]; 3 µM): 47% |
| CCSCC(C)(O)c1cc2cc([N+](=O)[O-])c(C(F)(F)F)cc2n1S(C)(=O)=O (stereo not drawn) [Compound 141] | inactive | -4.5 |  |
| CCS(=O)(=O)CC(C)(O)c1cc2cc([N+](=O)[O-])c(C(F)(F)F)cc2[nH]1 (stereo not drawn) [Compound 143] | active |  | % Inhibition, Androgen Receptor Binding (Rat Cytosol) ([1]; 3 µM): 14% |
| CC(O)(CS(C)(=O)=O)c1cc2cc([N+](=O)[O-])c(C(F)(F)F)cc2[nH]1 (stereo not drawn) [Compound 147] |  |  | % Inhibition, Androgen Receptor Binding (Rat Cytosol) ([1]; 3 µM): 68% |
| CC(O)(CS(C)(=O)=O)c1cc2cc([N+](=O)[O-])c(C(F)(F)F)cc2[nH]1 (stereo not drawn) [Compound 148] |  |  | % Inhibition, Androgen Receptor Binding (Rat Cytosol) ([1]; 3 µM): 94% |
| CCS(=O)(=O)CC(C)(O)c1cc2cc([N+](=O)[O-])c(C(F)(F)F)cc2[nH]1 (stereo not drawn) [Compound 151] |  |  | % Inhibition, Androgen Receptor Binding (Rat Cytosol) ([1]; 3 µM): 100% |
| CCS(=O)(=O)C[C@](C)(O)c1cc2cc([N+](=O)[O-])c(C(F)(F)F)cc2[nH]1 [Compound 156, 1-Ethanesulfonyl-2-(5-nitro-6-trifluoromethyl-1H-indol-2-yl)-propan-2-ol] | inactive | 66 | % Inhibition, Androgen Receptor Binding (Rat Cytosol) ([1]; 3 µM): 67% |
| CCSCC(O)c1cc2cc([N+](=O)[O-])c(C(F)(F)F)cc2[nH]1 (stereo not drawn) [Compound 158] | inactive | 52 |  |
| CC(O)(CSCc1ccccc1)c1cc2cc([N+](=O)[O-])c(C(F)(F)F)cc2[nH]1 (stereo not drawn) [Compound 160] | inactive | 65 |  |
| CC(C)SCC(C)(O)c1cc2cc([N+](=O)[O-])c(C(F)(F)F)cc2[nH]1 (stereo not drawn) [Compound 164] | inactive | 52 |  |
| CCCSCC(C)(O)c1cc2cc([N+](=O)[O-])c(C(F)(F)F)cc2[nH]1 (stereo not drawn) [Compound 168] | inactive | 41 |  |
| CCSCC(O)(CC)c1cc2cc([N+](=O)[O-])c(C(F)(F)F)cc2[nH]1 (stereo not drawn) [Compound 169] | active | 62 |  |
| CC(C)CSCC(C)(O)c1cc2cc([N+](=O)[O-])c(C(F)(F)F)cc2[nH]1 (stereo not drawn) [Compound 170] | active | 80 |  |
| CC(O)(CSCC(F)(F)F)c1cc2cc([N+](=O)[O-])c(C(F)(F)F)cc2[nH]1 (stereo not drawn) [Compound 171] | active | 18 | IC50 ([1]; read-out: IC50 (nM), Androgen Receptor Binding (Rat Cytosol)): 320 nM |
| CC(O)(CSC1CCCC1)c1cc2cc([N+](=O)[O-])c(C(F)(F)F)cc2[nH]1 (stereo not drawn) [Compound 173] | inactive | 32 |  |
| CCC(O)(CS(=O)(=O)CC)c1cc2cc([N+](=O)[O-])c(C(F)(F)F)cc2[nH]1 (stereo not drawn) [Compound 176] | active | 90 |  |
